In US9376429B2, “Sodium channel blockers, preparation method thereof and use thereof” (Daewoong Pharmaceutical Co., Ltd., priority 2012, dated 2016) one finds IC50 data, which are given here for 29 molecules.

In this assay the target is T1, sodium ion channel (Nav1.7) (Homo sapiens, UniProt Q15858).
T1 construct: host or cells: HEK293
The assay can be described thus: Blocking effect against sodium ion channel (Nav1.7), IonFlux16 auto patch clamp, hNav1.7 HEK293 cells. The note with it: peak current after 50 seconds treatment, eight concentrations. In kind it is cell-based. As for the experimental part: In order to measure the activities of the inventive compounds as antagonists, an experiment on a blocking effect against the sodium ion channel (Nav1.7) was carried out as follows.
The hNav1.7 HEK293 cell line used was a cell line having a human sodium ion channel 1.7 gene (type IX voltage-gated sodium channel alpha subunit) in human embryonic kidney (HEK) 293 cells and was purchased from Millipore. The medium used was prepared by adding 1% 100×NEAA and 10% heat inactivated FBS to DMEM F-12 and adding 1% P/S as an antibiotic thereto. G-418 as a […] was added during subculture, and the hNav1.7 HEK293 cells were cultured to a confluence of about 80% in a T75 flask in a 5% CO2 incubator at 37° C. for 2 or 3 days and detached from the flask by treatment with 0.25% trypsin solution. Then, the cells were collected by centrifugation and used in the experiment.
The compounds prepared in the Examples of the present invention were dissolved in dimethyl sulfoxide (DMSO) and used in the experiment. 90 mM and 10 mM DMSO stock solutions were prepared from each of the compounds and diluted in an extracellular solution (4 mM KCl, 138 mM NaCl, 1 mM MgCl2, 1.8 mM CaCl2, 5.6 mM glucose, 10 mM HEPES, pH 7.45) at various concentrations so that the final concentration of each compound in DMSO was 0.3% or less.
To measure the sodium ion channel blocking effect, an IonFlux16 Auto patch clamp system (Fluxion, Inc.) and a plate for exclusive use were used. The cells were distributed in an extracellular solution (4 mM KCl, 138 mM NaCl, 1 mM MgCl2, 1.8 mM CaCl2, 5.6 mM glucose, 10 mM HEPES, pH 7.45), and then dispensed in the specified region of the plate, and each of the prepared compound samples was diluted at various concentrations, and then dispensed in the specified region of the plate.
Specifically, eight concentrations per compound were set, and percent inhibition was determined by calculating the percentage of inhibition of the peak current, generated after treating the cells with each concentration of the compound for 50 seconds, relative to the peak current generated before treatment with the compound, and the IC50 value was calculated using the Sigma plot program. In Table 2 below, the percent inhibition of Nav1.7 is rated as follows: […]

T1 sequence (Q15858 whole entry): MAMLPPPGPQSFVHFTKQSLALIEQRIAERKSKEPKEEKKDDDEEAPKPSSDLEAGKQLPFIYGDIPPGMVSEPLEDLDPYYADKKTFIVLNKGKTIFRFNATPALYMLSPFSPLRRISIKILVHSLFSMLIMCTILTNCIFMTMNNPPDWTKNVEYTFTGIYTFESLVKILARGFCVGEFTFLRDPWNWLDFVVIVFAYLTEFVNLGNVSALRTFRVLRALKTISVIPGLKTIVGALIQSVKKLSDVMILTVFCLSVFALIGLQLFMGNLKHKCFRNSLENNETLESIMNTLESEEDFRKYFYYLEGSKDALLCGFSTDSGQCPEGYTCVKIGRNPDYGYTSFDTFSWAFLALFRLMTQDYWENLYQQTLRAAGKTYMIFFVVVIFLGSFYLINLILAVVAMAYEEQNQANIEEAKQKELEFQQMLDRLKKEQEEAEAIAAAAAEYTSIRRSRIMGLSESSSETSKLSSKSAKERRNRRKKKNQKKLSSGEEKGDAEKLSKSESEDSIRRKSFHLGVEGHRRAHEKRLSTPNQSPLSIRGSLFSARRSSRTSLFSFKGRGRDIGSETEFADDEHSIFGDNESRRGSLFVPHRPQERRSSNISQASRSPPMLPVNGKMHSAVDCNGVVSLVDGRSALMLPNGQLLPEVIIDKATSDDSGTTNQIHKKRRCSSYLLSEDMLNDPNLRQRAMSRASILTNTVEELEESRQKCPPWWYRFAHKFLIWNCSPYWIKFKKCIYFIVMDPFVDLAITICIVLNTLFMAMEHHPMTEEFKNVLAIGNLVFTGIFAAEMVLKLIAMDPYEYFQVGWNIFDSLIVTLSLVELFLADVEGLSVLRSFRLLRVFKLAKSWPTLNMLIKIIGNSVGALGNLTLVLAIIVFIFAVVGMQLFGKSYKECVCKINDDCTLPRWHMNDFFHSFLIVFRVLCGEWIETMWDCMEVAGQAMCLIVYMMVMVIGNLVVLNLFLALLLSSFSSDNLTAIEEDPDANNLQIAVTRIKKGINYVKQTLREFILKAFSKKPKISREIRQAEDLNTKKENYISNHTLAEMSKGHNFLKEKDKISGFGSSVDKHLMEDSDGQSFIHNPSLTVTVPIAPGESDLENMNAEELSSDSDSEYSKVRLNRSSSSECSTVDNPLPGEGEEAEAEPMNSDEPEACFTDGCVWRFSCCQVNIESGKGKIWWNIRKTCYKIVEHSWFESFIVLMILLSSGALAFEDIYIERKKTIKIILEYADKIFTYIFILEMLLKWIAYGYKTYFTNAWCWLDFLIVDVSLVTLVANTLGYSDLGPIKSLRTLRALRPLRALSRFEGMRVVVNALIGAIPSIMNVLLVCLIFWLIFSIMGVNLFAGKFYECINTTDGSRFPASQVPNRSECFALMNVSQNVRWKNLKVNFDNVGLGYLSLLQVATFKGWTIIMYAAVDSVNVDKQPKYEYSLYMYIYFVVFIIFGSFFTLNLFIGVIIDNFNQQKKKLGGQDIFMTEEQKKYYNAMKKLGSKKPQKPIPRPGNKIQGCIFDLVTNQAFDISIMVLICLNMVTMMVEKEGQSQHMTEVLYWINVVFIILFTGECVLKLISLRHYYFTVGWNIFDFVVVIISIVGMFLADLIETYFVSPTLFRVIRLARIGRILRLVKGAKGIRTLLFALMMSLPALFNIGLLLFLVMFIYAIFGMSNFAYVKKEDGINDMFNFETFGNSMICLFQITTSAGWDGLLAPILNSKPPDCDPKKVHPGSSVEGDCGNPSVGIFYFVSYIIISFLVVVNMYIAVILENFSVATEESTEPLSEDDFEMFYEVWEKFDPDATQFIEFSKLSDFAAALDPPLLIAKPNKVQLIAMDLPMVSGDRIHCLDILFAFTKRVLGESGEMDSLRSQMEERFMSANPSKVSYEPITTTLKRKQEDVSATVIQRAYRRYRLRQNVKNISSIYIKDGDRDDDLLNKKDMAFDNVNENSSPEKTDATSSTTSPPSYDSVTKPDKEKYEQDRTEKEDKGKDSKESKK

As for `N#Cc1cc(S(=O)(=O)Nc2nccs2)ccc1Oc1cnc(-c2ccccc2)cc1-c1ccc(F)nc1` [Example 30, 3-cyano-4-((6-fluoro-6′-phenyl-[3,4′-bipyridin]-3′-yl)oxy)-N-(thiazol-2-yl)benzenesulfonamide], the IC50 (as a rule, the point on the concentration scale where inhibition reaches its midpoint) was greater than 100 nM.

As for `N#Cc1cc(S(=O)(=O)Nc2nccs2)ccc1Oc1cnc(-c2ccccc2)cc1-c1ccnc(F)c1` [Example 31, 3-cyano-4-((2′-fluoro-6-phenyl-[4,4′-bipyridin]-3-yl)oxy)-N-(thiazol-2-yl)benzenesulfonamide], the half-maximal inhibitory concentration (IC50) is 51 to 100 nM.

Molecule `Cc1cc(-c2cc(-c3ccccc3)ncc2Oc2ccc(S(=O)(=O)Nc3nccs3)cc2C#N)cnc1F` [Example 32, 3-cyano-4-((6-fluoro-5-methyl-6′-phenyl-[3,4′-bipyridin]-3′-yl)oxy)-N-(thiazol-2-yl)benzenesulfonamide] displayed an IC50 greater than 100 nM.

`N#Cc1cc(S(=O)(=O)Nc2nccs2)ccc1Oc1cnc(-c2ccccc2)cc1-c1cccnc1` [Example 33, 3-cyano-4-((6′-phenyl-[3,4′-bipyridin]-3′-yl)oxy)-N-(thiazol-2-yl)benzenesulfonamide] came in with an IC50 greater than 100 nM.

Molecule `N#Cc1cc(S(=O)(=O)Nc2nccs2)ccc1Oc1cnc(-c2ccccc2)cc1-c1cncnc1` [Example 34, 3-cyano-4-((6-phenyl-4-(pyrimidin-5-yl)pyridin-3-yl)oxy)-N-(thiazol-2-yl)benzenesulfonamide] yielded a half-maximal inhibitory concentration (IC50) greater than 100 nM.

The molecule `N#Cc1cc(S(=O)(=O)Nc2nccs2)ccc1Oc1cnc(-c2ccccc2)cc1-c1ccncc1Cl` [Example 35, 4-((3′-chloro-6-phenyl-[4,4′-bipyridin]-3-yl)oxy)-3-cyano-N-(thiazol-2-yl)benzenesulfonamide] gave a half-maximal inhibitory concentration (IC50) greater than 100 nM.

For the molecule `N#Cc1cc(S(=O)(=O)Nc2nccs2)ccc1Oc1cnc(-c2ccccc2)cc1-c1ccnc(Cl)c1Cl` [Example 36, 3-cyano-4-((2′,3′-dichloro-6-phenyl-[4,4′-bipyridin]-3-yl)oxy)-N-(thiazol-2-yl)benzenesulfonamide], the half-inhibitory concentration (IC50) was greater than 100 nM.

In turn, `Cc1noc(C)c1-c1cc(-c2ccccc2)ncc1Oc1ccc(S(=O)(=O)Nc2nccs2)cc1C#N` [Example 37, 3-cyano-4-((4-(3,5-dimethylisoxazol-4-yl)-6-phenylpyridin-3-yl)oxy)-N-(thiazol-2-yl)benzenesulfonamide] registered a 50% inhibitory concentration (IC50) greater than 100 nM.

In the case of `Cn1cc(-c2cc(-c3ccccc3)ncc2Oc2ccc(S(=O)(=O)Nc3nccs3)cc2C#N)cn1` [Example 38, 3-cyano-4-((4-(1-methyl-1H-pyrazol-4-yl)-6-phenylpyridin-3-yl)oxy)-N-(thiazol-2-yl)benzenesulfonamide], the IC50 is greater than 100 nM.

Regarding `N#Cc1cc(S(=O)(=O)Nc2nccs2)ccc1Oc1cnc(-c2ccccc2)cc1-c1cn[nH]c1` [Example 39, 3-cyano-4-((6-phenyl-4-(1H-pyrazol-4-yl)pyridin-3-yl)oxy)-N-(thiazol-2-yl)benzenesulfonamide], the IC50 lay in the range of 51 to 100 nM.

Regarding `N#Cc1cc(S(=O)(=O)Nc2nccs2)ccc1Oc1cnc(-c2ccccc2)cc1-c1ccncc1` [Example 40, 3-cyano-4-((6-phenyl-[4,4′-bipyridin]-3-yl)oxy)-N-(thiazol-2-yl)benzenesulfonamide], the IC50 is greater than 100 nM.

Regarding `Cc1cc(-c2cc(-c3ccccc3)ncc2Oc2ccc(S(=O)(=O)Nc3nccs3)cc2C#N)c(C)s1` [Example 41, 3-cyano-4-((4-(2,5-dimethylthiophen-3-yl)-6-phenylpyridin-3-yl)oxy)-N-(thiazol-2-yl)benzenesulfonamide], the IC50 was greater than 100 nM.

`Cc1ccc(-c2cc(-c3ccccc3)ncc2Oc2ccc(S(=O)(=O)Nc3nccs3)cc2C#N)s1` [Example 42, 3-cyano-4-((4-(5-methylthiophen-2-yl)-6-phenylpyridin-3-yl)oxy)-N-(thiazol-2-yl)benzenesulfonamide] came in with an IC50 greater than 100 nM.

As to `N#Cc1cc(S(=O)(=O)Nc2nccs2)ccc1Oc1cnc(-c2ccccc2)cc1-c1csc(C2CC2)n1` [Example 43, 3-cyano-4-((4-(2-cyclopropylthiazol-4-yl)-6-phenylpyridin-3-yl)oxy)-N-(thiazol-2-yl)benzenesulfonamide], the 50% inhibitory concentration (IC50) was greater than 100 nM.

The molecule `N#Cc1cc(S(=O)(=O)Nc2nccs2)ccc1Oc1cnc(-c2ccccc2)cc1-c1cnn(C2CC2)c1` [Example 44, 3-cyano-4-((4-(1-cyclopropyl-1H-pyrazol-4-yl)-6-phenylpyridin-3-yl)oxy)-N-(thiazol-2-yl)benzenesulfonamide] showed an IC50 greater than 100 nM.

Molecule `N#Cc1cc(S(=O)(=O)Nc2nccs2)ccc1Oc1cnc(-c2cn[nH]c2)cc1-c1ccoc1` [Example 45, 3-cyano-4-((4-(furan-3-yl)-6-(1H-pyrazol-4-yl)pyridin-3-yl)oxy)-N-(thiazol-2-yl)benzenesulfonamide] gave an IC50 greater than 100 nM.

`Cn1cc(-c2cc(-c3ccoc3)c(Oc3ccc(S(=O)(=O)Nc4nccs4)cc3C#N)cn2)cn1` [Example 46, 3-cyano-4-((4-(furan-3-yl)-6-(1-methyl-1H-pyrazol-4-yl)pyridin-3-yl)oxy)-N-(thiazol-2-yl)benzenesulfonamide] showed an IC50 greater than 100 nM.

`O=S(=O)(Nc1nccs1)c1ccc(Oc2cnc(-c3cccnc3F)cc2-c2ccoc2)c(F)c1` [Example 47, 3-fluoro-4-((2′-fluoro-4-(furan-3-yl)-[2,3′-bipyridin]-5-yl)oxy)-N-(thiazol-2-yl)benzenesulfonamide] showed an IC50 greater than 100 nM.

Take `O=S(=O)(Nc1nccs1)c1ccc(Oc2cnc(-c3ccc(F)nc3)cc2-c2ccoc2)c(F)c1` [Example 48, 3-fluoro-4-((6′-fluoro-4-(furan-3-yl)-[2,3′-bipyridin]-5-yl)oxy)-N-(thiazol-2-yl)benzenesulfonamide]: the IC50 was greater than 100 nM.

In turn, `N#Cc1cc(S(=O)(=O)Nc2nccs2)ccc1Oc1cnc(-c2ccc(F)nc2)cc1-c1cccnc1` [Example 49, 3-cyano-4-((6-fluoro-[3,2′:4′,3″-terpyridin]-5′-yl)oxy)-N-(thiazol-2-yl)benzenesulfonamide] registered a concentration for half-maximal inhibition (IC50) greater than 100 nM.

The molecule `N#Cc1cc(S(=O)(=O)Nc2nccs2)ccc1Oc1cnc(-c2cccc(F)c2)cc1-c1cccnc1` [Example 50, 3-cyano-4-((6′-(3-fluorophenyl)-[3,4′-bipyridin]-3′-yl)oxy)-N-(thiazol-2-yl)benzenesulfonamide] displayed an IC50 of less than 50 nM.

In the case of `N#Cc1cc(S(=O)(=O)Nc2nccs2)ccc1Oc1cnc(-c2cccnc2F)cc1-c1cccnc1` [Example 51, 3-cyano-4-((2-fluoro-[3,2′:4′,3″-terpyridin]-5′-yl)oxy)-N-(thiazol-2-yl)benzenesulfonamide], the IC50 was greater than 100 nM.

The molecule `N#Cc1cc(S(=O)(=O)Nc2nccs2)ccc1Oc1cnc(-c2ccccc2F)cc1-c1cccnc1` [Example 52, 3-cyano-4-((6′-(2-fluorophenyl)-[3,4′-bipyridin]-3′-yl)oxy)-N-(thiazol-2-yl)benzenesulfonamide] registered a concentration for half-maximal inhibition (IC50) greater than 100 nM.

As to `N#Cc1cc(S(=O)(=O)Nc2nccs2)ccc1Oc1cnc(-c2ccc(F)nc2F)cc1-c1ccncc1` [Example 53, 3-cyano-4-((2,6-difluoro-[3,2′:4′,4″-terpyridin]-5′-yl)oxy)-N-(thiazol-2-yl)benzenesulfonamide], the half-maximal inhibitory concentration (IC50) is greater than 100 nM.

Regarding `Cn1cc(-c2cc(-c3cnn(C)c3)c(Oc3ccc(S(=O)(=O)Nc4nccs4)cc3C#N)cn2)cn1` [Example 54, 4-((4,6-bis(1-methyl-1H-pyrazol-4-yl)pyridin-3-yl)oxy)-3-cyano-N-(thiazol-2-yl)benzenesulfonamide], the IC50 was greater than 100 nM.

Molecule `Cn1cc(-c2cc(-c3cnn(C)c3)c(Oc3ccc(S(=O)(=O)Nc4ncns4)cc3C#N)cn2)cn1` [Example 55, 4-((4,6-bis(1-methyl-1H-pyrazol-4-yl)pyridin-3-yl)oxy)-3-cyano-N-(1,2,4-thiadiazol-5-yl)benzenesulfonamide] displayed an IC50 greater than 100 nM.

Turning to `O=S(=O)(Nc1cscn1)c1cc(Cl)c(Oc2cnc(-c3cccnc3F)cc2-c2ccoc2)cc1F` [Example 56, 5-chloro-2-fluoro-4-((2′-fluoro-4-(furan-3-yl)-[2,3′-bipyridin]-5-yl)oxy)-N-(thiazol-4-yl)benzenesulfonamide], the half-maximal inhibitory concentration (IC50) was greater than 100 nM.

Regarding `O=S(=O)(Nc1cscn1)c1cc(Cl)c(Oc2cnc(-c3ccc(F)nc3)cc2-c2ccoc2)cc1F` [Example 57, 5-chloro-2-fluoro-4-((6′-fluoro-4-(furan-3-yl)-[2,3′-bipyridin]-5-yl)oxy)-N-(thiazol-4-yl)benzenesulfonamide], the IC50 was greater than 100 nM.

In turn, `O=S(=O)(Nc1cscn1)c1cc(Cl)c(Oc2cnc(-c3ccc(F)nc3F)cc2-c2ccoc2)cc1F` [Example 58, 5-chloro-4-((2′,6′-difluoro-4-(furan-3-yl)-[2,3′-bipyridin]-5-yl)oxy)-2-fluoro-N-(thiazol-4-yl)benzenesulfonamide] showed a concentration for half-maximal inhibition (IC50) greater than 100 nM.
